Results reported in PubChem BioAssay (NCI).
Where “and” joins values, the source holds several entries; their conditions need not be identical. Equal entries are not always repeated.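 Five compound concentrations were applied to cells in 96-well plates for 48 hours; endpoints were derived by simple linear interpolation of the resulting dose-response curve. GI50 is the concentration that inhibits growth by half. TGI denotes the concentration required for complete inhibition of growth.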

How the values were obtained:
Assay in all cases: inhibition of tumour cell growth, NCI panel, 48 h
KM12 colon = system: KM12 colon
SW-620 colon = system: SW-620 colon
HCC-2998 colon = system: HCC-2998 colon
HCT-15 colon = system: HCT-15 colon
SNB-75 CNS = system: SNB-75 CNS
NCI-H226 lung = system: NCI-H226 lung
MDA-MB-231 breast = system: MDA-MB-231 breast
786-0 renal = system: 786-0 renal
SN12C renal = system: SN12C renal
RPMI-8226 leukemia = system: RPMI-8226 leukemia

| Structure (SMILES) | GI50 (KM12 colon) | TGI (KM12 colon) | GI50 (SW-620 colon) | TGI (SW-620 colon) | GI50 (HCC-2998 colon) | TGI (HCC-2998 colon) | GI50 (HCT-15 colon) | TGI (HCT-15 colon) | GI50 (SNB-75 CNS) | TGI (SNB-75 CNS) | GI50 (NCI-H226 lung) | TGI (NCI-H226 lung) | GI50 (MDA-MB-231 breast) | TGI (MDA-MB-231 breast) | GI50 (786-0 renal) | TGI (786-0 renal) | GI50 (SN12C renal) | TGI (SN12C renal) | GI50 (RPMI-8226 leukemia) | TGI (RPMI-8226 leukemia) |
| --- | --- | --- | --- | --- | --- | --- | --- | --- | --- | --- | --- | --- | --- | --- | --- | --- | --- | --- | --- | --- |
| COc1ccc2c(c1)oc(=O)c1cc(OC)ccc12 | > 100 µM | > 100 µM | > 100 µM | > 100 µM | > 100 µM | > 100 µM | > 100 µM | > 100 µM | > 100000 nM | > 100 µM | > 100 µM | > 100 µM | > 100 µM | > 100 µM | > 100000 nM | > 100 µM | > 100 µM | > 100 µM | > 100000 nM | > 100 µM |
| N#Cc1c(N)n2c(nc1=Nc1ccc(Cl)cc1)sc1cc(Cl)ccc12 | 3.22 µM |  | 3.42 µM | > 100 µM | 2.23 µM | 8.94 µM | 5.47 µM | > 100 µM | 5070 nM | > 100 µM | 6.71 µM and 2.39 µM | 9 µM | 7.28 µM | 71 µM | 5460 nM and 2500 nM | 5.03 µM | 33.5 µM | > 100 µM | 1260 nM | 9.27 µM |
| Cc1ccc2c(c1)c(Sc1ccc(C(=O)NO)cc1)c1n2CN(C)CC1 | 1.71 µM | 3.5 µM | 1.77 µM | 4.45 µM | 1.64 µM | 3.67 µM | 3.65 µM | 13.6 µM | 960 nM | 3.76 µM | 1.83 µM | 4.86 µM | 1.51 µM | 4.13 µM | 2820 nM | 8.53 µM | 2.28 µM | 6.79 µM | 1100 nM | 9.86 µM |
| CC/C(=C(/c1ccc(O)cc1)c1ccc(OCCN)cc1)c1ccccc1 | 1.97 µM | 3.9 µM | 1.87 µM | 3.91 µM | 1.95 µM | 3.72 µM | 1.91 µM | 4.06 µM | 1860 nM | 12.1 µM | 11.6 µM | 30.7 µM | 1.98 µM | 5.23 µM | 2690 nM | 7.28 µM | 3.02 µM | 9.67 µM | 2370 nM | 5.65 µM |
| C[C@]12CC[C@@H]3c4cc(OC(F)F)c(OS(N)(=O)=O)cc4CC[C@H]3[C@@H]1CC[C@@H]2OS(N)(=O)=O | 1.62 µM | 20 µM | 0.439 µM | 20.7 µM | 3.88 µM | 17.3 µM | 0.593 µM | 15.8 µM | 463 nM | 2.15 µM | 4.24 µM | 33.2 µM | 3.05 µM | 28.2 µM | 1800 nM | 16.5 µM | 2.07 µM | 21.4 µM | 1030 nM | 35.4 µM |
| COc1cc2c(cc1Cc1cccc(Cl)c1F)c(=O)c(C(=O)O)cn2[C@@H](CO)C(C)C | 4.03 µM | 13.1 µM | 3.57 µM | 15 µM | 3.13 µM | 11.6 µM | 3.64 µM | 14.4 µM | 2530 nM | 13.7 µM | 5.68 µM | 23.6 µM | 3.84 µM | 19.7 µM | 3550 nM | 14.9 µM | 3.06 µM | 13.7 µM | 3360 nM | 12.5 µM |
| COc1cc(/C(=C2/O[C@@H]([C@H]3COC(C)(C)O3)[C@H]3OC(C)(C)O[C@@H]23)c2ccc3ccccc3c2)cc(OC)c1OC | 6 µM | > 100 µM | 4.31 µM | > 100 µM | 6.47 µM | > 100 µM | 76.8 µM | > 100 µM | 2890 nM | 7.44 µM | 3.49 µM | 60 µM | 6.28 µM | 69.7 µM | 2300 nM | 4.47 µM | 3.65 µM | > 100 µM | 33300 nM | > 100 µM |
| COc1cccc(/C=N/NC(=O)c2ccccc2N2CCCC2)c1O | 38.4 µM | > 100 µM | 4.08 µM | > 100 µM | 47 µM | > 100 µM | 1.76 µM | > 100 µM | 16900 nM | > 100 µM | 1.84 µM | 9.06 µM | 7.31 µM | > 100 µM | 3580 nM | > 100 µM | 15.5 µM | > 100 µM | 3740 nM | > 100 µM |
| CC1=CCCC2C1(C)CCC(C)C2(C)Cc1cc(O)ccc1O (stereo not given) | 5.16 µM | 18.7 µM | 12.9 µM | 33.3 µM and 23.3 µM | 15.6 µM | 30 µM and 24.6 µM | 6.04 µM | 25.8 µM and 23.7 µM |  | 20.5 µM and 21.7 µM | 5.5 µM | 27.2 µM and 15.8 µM |  | 21.5 µM |  | 20.3 µM | 13.1 µM | 29.3 µM and 23.8 µM |  | 9.97 µM and 8.53 µM |
| COc1ccc2c(c1)CC[C@@H]1[C@@H]2CC[C@]2(C)c3c(cc(C(=O)O)c4sccc34)C[C@@H]12 | 10.6 µM | 23.5 µM | 16.1 µM | 36.7 µM | 11 µM | 26.7 µM | 10.8 µM | 32 µM | 20800 nM | 47.9 µM | 23 µM | 55.4 µM | 25.6 µM | 59.7 µM | 16900 nM | 32.5 µM | 17.8 µM | 41.3 µM | 4010 nM | 17.7 µM |
| CC[C@@H](C(=O)[C@H](C)[C@H](O)[C@@H](C)[C@H]1O[C@H]([C@@H](CC)C(=O)N(CC)CC)CC[C@H]1C)C1O[C@]2(C=C[C@@H](O)[C@]3(CC[C@@](C)([C@H]4CC[C@](O)(CC)[C@H](C)O4)O3)O2)[C@H](C)C[C@@H]1C (stereo not given in full) | 2.53 µM | 7.03 µM | 3.22 µM | 13.3 µM | 2.97 µM | 10.7 µM | 2.64 µM | 8.28 µM | 1720 nM | 11.1 µM | 2.69 µM | 10.9 µM | 1.86 µM | 4.29 µM | 3550 nM | 17.5 µM | 2.75 µM | 10.1 µM | 2050 nM | 6.15 µM |
| CCOC(=O)c1cc(C(=O)c2cc(OC)c(OC)c(OC)c2)n2c1ccc1ccccc12 | 0.26 µM | > 100 µM | 0.157 µM | > 100 µM | 0.514 µM | > 100 µM | 0.137 µM | > 100 µM | 59.9 nM | 0.617 µM | 1.23 µM | > 100 µM | 1.48 µM | > 100 µM | 693 nM | > 100 µM | 0.814 µM | > 100 µM | 378 nM | > 100 µM |
